Here are results for twelve compounds from ChEMBL document CHEMBL1125519, “Thieno[2,3-b]furan-2-sulfonamides as topical carbonic anhydrase inhibitors” (J Med Chem, 1992).

Data set [1] has as its target T1, Carbonic anhydrase 2 (Homo sapiens, UniProt P00918).
Description: Inhibition of human erythrocyte carbonic anhydrase II
Data set [2] in a line: physchem. The following applies: water.
Data set [3] is described as follows: physchem. The following applies: water. This is another data set of the same source.
Description: Solubility was evaluated in water at 25 degree Centigrade
The nature of data set [4]: physchem. The following applies: 30% ethanol.
A short description of data set [5]: Solubility was evaluated at pH 7.4 buffer at 25 degree Centigrade. The format is physicochemical.
The species entered for data set [6] is Bos taurus.
Data set [7] has as its target T1, Carbonic anhydrase 2. The source holds these as a separate data set.
Description: Compound was evaluated for the inhibition of dansylamide at human carbonic anhydrase II
For data set [8], the species on record is Bos taurus. Briefly: Percentage binding to bovine iris and ciliary body. Format: functional.
Data set [9] is described as follows: pKa in water. The format is physicochemical.
The species entered for the next data set is Oryctolagus cuniculus. Briefly: Compound was evaluated for the lowering of the intraocular pressure (IOP) (2%, 3 drops) in ocular normotensive pigmented rabbits. The format is functional, Eye.
The species entered for data set [10] is Bos taurus. Briefly: Percentage binding of bovine ocular pigment. The format is functional, Eye.

Values after ≈ are worked out from the molar mass of the structure shown.

The IC50 is the midpoint of a concentration-inhibition curve. Low values mean higher potency, high ones lower potency. Broadly, the pKa is the negative logarithm of the acid dissociation constant. A high value points to a group that holds its proton tightly. A word on the solubility: it is the concentration that dissolves in the medium under given conditions. High values mean much dissolved substance, low ones little dissolved substance. Usually Ki stands for a measure of affinity in units of concentration, obtained from inhibition or displacement.

As for `NS(=O)(=O)c1cc2cc(CNCCCCO)sc2o1`, the midpoint of inhibition at Carbonic anhydrase 2 [1], the IC50, lay at 11 nM. The pKa in the data set “physchem [2]” was found to be 7.65; in the data set “physchem [4]”, 9.16. The solubility in the data set “physchem [3]” is greater than 47 mg/mL.
With `NS(=O)(=O)c1cc2cc(CNCc3ccccn3)sc2o1`, at Carbonic anhydrase 2 [1], the IC50 came out at 8.2 nM. For the same compound, the values for the solubility (in [5]; in the data set “physchem [3]”) were 16.9 mg/mL (≈ 52.3 mM) and 20.4 mg/mL (≈ 63.1 mM), respectively. The results for the pKa in “physchem [2]” and in “physchem [4]” were 7.02 and 9.08, respectively. The compound further came in with a Pigment binding in the data set listed under Bos taurus [6] of 69%. Moreover, at Carbonic anhydrase 2 [7], the affinity, expressed as Ki, was 8.2 nM.
In turn, `CCOCCNCc1cc2cc(S(N)(=O)=O)oc2s1` displayed an IC50 on Carbonic anhydrase 2 [1] of 8 nM. In addition, the solubility in data set [5] amounted to 19.7 mg/mL (≈ 64.7 mM); in “physchem [3]”, 40.8 mg/mL (≈ 134 mM). This compound also yielded a Pigment binding in the data set filed under Bos taurus [8] of 75%. In addition, the results for the pKa (in [9]; in the data set “physchem [4]”) were 6.85 and 8.9, respectively.
Consider `COCCNCc1cc2cc(S(N)(=O)=O)oc2s1`, for which the IC50 on Carbonic anhydrase 2 [1] amounted to 11 nM. The solubility (in data set [5]; in the data set “physchem [3]”) was greater than 27 mg/mL throughout. This compound showed a Pigment binding in the data set listed under Bos taurus [8] of 73%. Also, the pKa in [9] turned out to be 7; in “physchem [4]” it was 9.05.
For `CC(C)CNCc1cc2cc(S(N)(=O)=O)oc2s1`, at Carbonic anhydrase 2 [1], inhibition was half-maximal at 6 nM (IC50). The results for the pKa in the data set “physchem [2]” and in “physchem [4]” were 7.55 and 9.1, respectively. Moreover, the Pigment binding in the data set listed under Bos taurus [8] came to 73%. For the same compound, in the data set “physchem [3]”, the solubility was found to be 15.3 mg/mL (≈ 53.1 mM). Further, the Ki on Carbonic anhydrase 2 [7] amounted to 7.4 nM.
`NS(=O)(=O)c1cc2cc(CN3CCOCC3)sc2o1`: the IC50 against Carbonic anhydrase 2 [1] was found to be 5.6 nM. In the data set listed under Oryctolagus cuniculus, this compound displayed an IOP lowering of 2.5 mmHg. In addition, in the data set filed under Bos taurus [10], the Binding is 24.8%. For the same compound, the solubility in data set [5] is 0.97 mg/mL (≈ 3.21 mM); in the data set “physchem [3]” it was greater than 4.7 mg/mL. The compound also yielded a Pigment binding in the data set listed under Bos taurus [8] of 25%. The pKa stood at 5.32 in data set [9] and 9.2 in “physchem [4]”. For the same compound, the Ki at Carbonic anhydrase 2 [7] worked out at 1.24 nM.
On to `COCCOCCN(CCOC)Cc1cc2cc(S(N)(=O)=O)oc2s1`, for which, at Carbonic anhydrase 2 [1], the midpoint of inhibition, the IC50, lay at 6.49 nM. The pKa was determined as 5.55 in the data set “physchem [2]” and 8.85 in “physchem [4]”. In the data set listed under Bos taurus [6], the Pigment binding is 21%. This compound gave a Ki on Carbonic anhydrase 2 [7] of 3.6 nM.
Take `COCCN(CCOC)Cc1cc2cc(S(N)(=O)=O)oc2s1`: inhibition at Carbonic anhydrase 2 [1] was half-maximal at 5.1 nM (IC50). In addition, the IOP lowering in the data set filed under Oryctolagus cuniculus came to 3.9 mmHg. In the data set filed under Bos taurus [10], this compound gave a Binding of 26.9%. The pKa in the data set “physchem [2]” amounted to 5.57; in the data set “physchem [4]” it was 8.95. The same compound came in with a Pigment binding in the data set listed under Bos taurus [8] of 27%. This compound also gave a solubility in “physchem [3]” greater than 30 mg/mL. Moreover, the Ki on Carbonic anhydrase 2 [7] was found to be 2.6 nM.
`CNCc1cc2cc(S(N)(=O)=O)oc2s1` yielded an IC50 at Carbonic anhydrase 2 [1] of 9 nM. The pKa in the data set “physchem [2]” came out at 7.85; in “physchem [4]”, 9.25. Also, the Pigment binding in the data set filed under Bos taurus [8] stood at 77%. For the same compound, the solubility in “physchem [3]” was greater than 51 mg/mL. On Carbonic anhydrase 2 [7], the affinity corresponds to a Ki of 32.3 nM.
On to `CCCNCc1cc2cc(S(N)(=O)=O)oc2s1`, for which the IC50 at Carbonic anhydrase 2 [1] is 8 nM. Further, the pKa in the data set “physchem [2]” came out at 7.85; in the data set “physchem [4]”, 9.4. In addition, the Pigment binding in the data set filed under Bos taurus [8] stood at 68%. For the same compound, the solubility in “physchem [3]” is greater than 22.5 mg/mL.
With `COCCCNCc1cc2cc(S(N)(=O)=O)oc2s1`, it took 12 nM to reach half-maximal inhibition at Carbonic anhydrase 2 [1] (IC50). Moreover, the figures for the pKa in “physchem [2]” and in “physchem [4]” were 7.25 and 9, respectively. In the data set filed under Bos taurus [6], the Pigment binding stood at 78%. Moreover, in “physchem [3]”, the solubility is greater than 34 mg/mL.
In turn, `NS(=O)(=O)c1cc2cc(CNCCF)sc2o1` showed an IC50 against Carbonic anhydrase 2 [1] of 12 nM. In addition, the pKa worked out at 6.55 in the data set “physchem [2]” and 9 in “physchem [4]”. Moreover, the Pigment binding in the data set filed under Bos taurus [6] is 60%. Moreover, the solubility in “physchem [3]” was greater than 32 mg/mL. For the same compound, on Carbonic anhydrase 2 [7], the Ki was determined as 3.4 nM.
